Consider four molecules from ChEMBL document CHEMBL1125905, “Synthesis, conformational properties, and antibody recognition of peptides containing beta-turn mimetics based on alpha-alkylproline derivatives” (J Med Chem, 1991).

Assay [1] is described as follows: Dissociation constant (Kd) for the equilibrium binding to the monoclonal antibodies DB19/25 which were raised in mice was determined. Details: species or system Mus musculus.
Assay [2] is described as follows: Dissociation constant (Kd) for the equilibrium binding to the monoclonal antibodies DB19/1 which were raised in mice was determined. Details: species or system Mus musculus.

For `CC(=O)N[C@@H](Cc1ccc(O)cc1)C(=O)N1CCC[C@H]1C(=O)N[C@@H](Cc1ccc(O)cc1)C(=O)N[C@@H](CC(=O)O)C(=O)N[C@@H](C(=O)N(C)[C@@H](C)C(=O)N[C@H](CC(=O)O)C(=O)N[C@H](Cc1ccc(O)cc1)C(=O)N[C@H](C)C(=O)O)C(C)C`, the figures for the Kd in assay [1] and in assay [2] were 38 nM and 88 nM, respectively.
The corresponding values for `CC(=O)N[C@@H](Cc1ccc(O)cc1)C(=O)N(C)[C@@H](C)C(=O)N[C@@H](Cc1ccc(O)cc1)C(=O)N[C@@H](CC(=O)O)C(=O)N[C@@H](C(=O)N1CCC[C@@H]1C(=O)N[C@H](CC(=O)O)C(=O)N[C@H](Cc1ccc(O)cc1)C(=O)N[C@H](C)C(=O)O)C(C)C` are 600 nM and 4200 nM.
The matching figures for `CC(=O)N[C@@H](Cc1ccc(O)cc1)C(=O)N1CCC[C@@]1(C)C(=O)N[C@@H](Cc1ccc(O)cc1)C(=O)N[C@@H](CC(=O)O)C(=O)N[C@@H](C(=O)N1CCC[C@@H]1C(=O)N[C@H](CC(=O)O)C(=O)N[C@H](Cc1ccc(O)cc1)C(=O)N[C@H](C)C(=O)O)C(C)C`: 5.7 nM and 3.6 nM.
The corresponding values for `CC(=O)N[C@@H](Cc1ccc(O)cc1)C(=O)N1CCC[C@H]1C(=O)N[C@@H](Cc1ccc(O)cc1)C(=O)N[C@@H](CC(=O)O)C(=O)N[C@@H](C(=O)N1CCC[C@@H]1C(=O)N[C@H](CC(=O)O)C(=O)N[C@H](Cc1ccc(O)cc1)C(=O)N[C@H](C)C(=O)O)C(C)C` are 18 nM and 180 nM.
